According to patent US8252832B2, “Kinesin inhibitors as cancer therapeutics” (Novartis AG, priority 2007, dated 2012):

Key:
Assay type in all cases: in vivo, mouse
HCT116 tumor xenograft = HCT116 tumor xenograft model, tumor response; settings: for T/C, Day 24 (%) / Δ Tumor volume, Day 24 / Max. % Regression (Day) / Δ Tumor volume, Day 17: i.v.
Protocol: The cell line HCT-116 has been widely used in the evaluation of mitotic inhibitors such as microtubule disruptors, mitotic kinase inhibitors and KSP inhibitors. […] Experiments were performed using outbred athymic nu/nu mice approximately 6-8 weeks old (Charles River Laboratories, Hollister, Calif.). […] Mice were housed 4-5 animals per cage in clear polycarbonate micro-isolator cages with a 12-hour light, 12-hour dark cycle at temperatures between 70-80 degrees Fahrenheit and 30-70% relative humidity. Food (Purina rodent chow pellets) and water were provided ad libitum. Mice were handled in accordance with Novartis ACUC regulations and guidelines and the ILAR Guide for the Care and Use of Laboratory Animals. Experiments were performed in an AAALAC accredited facility under an ACUC approved protocol.
Compound IIa (free base) and SB-715992 (ispinesib, a KSP inhibitor by Cytokinetics that is in clinical trials; as its free base) were formulated in 20% Captisol® for all the above doses for a dose volume of 8 mL/kg. Doses were adjusted to each animal's body weight.
Human HCT116 colon carcinoma cells were obtained from the National Cancer Institute's DCTD Tumor Repository (catalog #NCI-502568, Rockville, Md.) and tested to be free of Mycoplasma sp. and murine viruses in the IMPACT1 PCR assay panel (RADIL, University of Missouri, Columbia, Mo.). HCT116 cells were grown in RPMI 1640 with 2 mM L-glutamine (Mediatech Inc., catalog #15-040-CV) supplemented with 10% fetal bovine serum (JRH Biosciences, catalog #12003-1000M). These cells were grown as adherent cultures, maintained at 37° C. in a humidified atmosphere containing 5% carbon dioxide. Cells were cultured for fewer than 10 passages prior to use. Cells were harvested at 95% confluency, and centrifuged at ˜800×g for 5 minutes at 4° C. and then resuspended in a cold HBSS (Mediatech Inc., catalog #21-021-CV) at a concentration of 50 million cells/mL for implantation subcutaneously (injection volume of 0.1 mL).
Female nu/nu mice (Charles River, Hollister, Calif.) were injected subcutaneously in the right flank with 5 million HCT-116 tumor cells suspended in Hank's Balanced Salt Solution (HBSS) in a total volume of 0.1 mL/mouse. For the efficacy studies, mice were randomized 10 days post-implant. […] Tumor volume was calculated as (L×W2)/2. […] Percent treatment/control (T/C) values were calculated using the following formula: % T/C=100×ΔT/ΔC
All data were expressed as mean and SEM. Between-groups comparisons for final tumor measurements were performed using the one-way ANOVA pair-wise analysis. Significance was determined using Kruskal-Wallis one-way ANOVA on Ranks and Dunn's method for multiple pair-wise comparisons. Statistical analysis was carried out using SigmaStat (Systat Software Inc., San Jose, Calif.).

[1] = test system: MV4; 11 human AML subcutaneous xenograft tumors; assay: Subcutaneous MV4; 11 tumor xenograft model, tumor response
Protocol: Subcutaneous tumor efficacy studies were performed using outbred athymic nu/nu mice approximately 6-8 weeks old (Charles River Laboratories, Hollister, Calif.). The efficacy study in the disseminated disease model was performed using immunodeficient NOD-SCID female mice approximately 7-8 weeks old (Jackson Laboratories, Bar Harbor, Me.). […] Routine animal care and assurance of welfare were as described above.
Human MV4; 11 acute myelogenous leukemia cells were obtained from American Tissue Culture Collection (catalog #CRL-9591, Rockville, Md.) and tested to be free of Mycoplasma sp. and murine viruses in the IMPACT1 PCR assay panel (RADIL, University of Missouri, Columbia, Mo.). For the disseminated disease model, a stable pool of MV4; 11 cells expressing the luciferase gene was received from Fangxian Sun at the Genomics Institute of the Novartis Research Foundation in San Diego, Calif. (MV4; 11-luc). The MV4; 11 cells were grown in Iscove's modified Dulbecco's medium (Mediatech Inc., catalog #15-016-CV) supplemented with 10% fetal bovine serum (JRH Biosciences, catalog #12003-1000M), 4 mM L-glutamine and 5 ng/mL recombinant human […] (GM-CSF) (R&D Systems, catalog #215-GM). MV4; 11-luc were grown in the same media, but with the addition of 2 micrograms/mL of puromycin for selection of luciferase expression. These cells were grown as suspension cultures, maintained at 37° C. in a humidified atmosphere containing 5% carbon dioxide. Cells were cultured for fewer than 10 passages prior to use. Cells were harvested at approximately 2 million cells/mL, and centrifuged at ˜800×g for 5 minutes at 4° C. and then resuspended in a cold HBSS (Mediatech Inc., catalog #21-021-CV) at a concentration of 25 million cells/mL (containing 50% Matrigel™, BD Biosciences, catalog #354234) for implantation subcutaneously (injection volume of 0.2 mL) or at a concentration of 100 million cells/mL for implantation intravenously (i.v.) via the tail vein (injection volume of 0.1 mL). Mice were irradiated with 3 gray for 3 minutes one day prior to the i.v. cell implant.
The compound IIa (free base) and SB-715992 (free base) were formulated in 20% Captisol for a dose volume of 8 mL/kg. Doses were adjusted to each animal's body weight.
For the two efficacy evaluations in the subcutaneous tumor model, 10 million cells combined in a 1:1 mixture of HBSS and Matrigel™ were injected subcutaneously in the right flank in a total volume of 0.2 mL/mouse. […] Tumor volume was calculated as (L×W2)/2.

[2] = Subcutaneous KMS-11-luc tumor xenograft model, host response; settings: Q4d × 3, i.v
Protocol: Experiments were performed using immunodeficient SCID-Beige female mice approximately 7-8 weeks old (Charles River Laboratories, Wilmington, Mass.). […] Routine animal care and assurance of welfare were as described above.
Compound IIa and SB-715992 (free base) were formulated in 20% Captisol for a dose volume of 8 mL/kg. Doses were adjusted to each animal's body weight.
For the efficacy evaluation in the subcutaneous tumor model, 10 million cells combined in a 1:1 mixture of HBSS and Matrigel™ were injected subcutaneously in the right flank in a total volume of […]. […] Tumor volume was calculated as (L×W2)/2. […] Data analysis was as described above.

[3] = Study 2, 0.13 mg/kg, q4d × 3, i.v
[4] = Study 2, 0.25 mg/kg, q4d × 3, i.v
[5] = Study 2, 0.5 mg/kg, q4d × 3, i.v

CC(C)(C)[C@H](c1nc(-c2cc(F)ccc2F)cn1Cc1ccccc1)N(CC[C@H](N)CF)C(=O)CO [Compound IIa]
T/C, Day 24 (%) (HCT116 tumor xenograft; 0.125 mg/kg, q4d × 3): 81%
Δ Tumor volume, Day 24 (HCT116 tumor xenograft; 0.125 mg/kg, q4d × 3): 809 ± 193 mm^3
anti-tumor effect (HCT116 tumor xenograft; 0.125 mg/kg, q4d×3): not significantly different from vehicle control
T/C, Day 24 (%) (HCT116 tumor xenograft; 0.25 mg/kg, q4d × 3): 35%
Δ Tumor volume, Day 24 (HCT116 tumor xenograft; 0.25 mg/kg, q4d × 3): 382 ± 120 mm^3
T/C, Day 24 (%) (HCT116 tumor xenograft; 0.5 mg/kg, q4d × 3): 14%
Δ Tumor volume, Day 24 (HCT116 tumor xenograft; 0.5 mg/kg, q4d × 3): 155 ± 145 mm^3
Max. % Regression (Day) (HCT116 tumor xenograft; 0.5 mg/kg, q4d × 3, D14): 8%
Δ Tumor volume, Day 24 (HCT116 tumor xenograft; 1 mg/kg, q4d × 3): −34 ± 36 mm^3
Max. % Regression (Day) (HCT116 tumor xenograft; 1 mg/kg, q4d × 3, D17): 46%
Δ Tumor volume, Day 17 (HCT116 tumor xenograft; 1.25 mg/kg, q4d × 3): −173 ± 12 mm^3
Max. % Regression (Day) (HCT116 tumor xenograft; 1.25 mg/kg, q4d × 3, D20): 66%
Δ Tumor volume, Day 24 (HCT116 tumor xenograft; 2 mg/kg, q4d × 3): −141 ± 48 mm^3
Max. % Regression (Day) (HCT116 tumor xenograft; 2 mg/kg, q4d × 3, D21): 73%
Δ Tumor volume, Day 17 (HCT116 tumor xenograft; 2.5 mg/kg, q4d × 3): −208 ± 17 mm^3
Max. % Regression (Day) (HCT116 tumor xenograft; 2.5 mg/kg, q4d × 3, D20): 82%
Δ Tumor volume, Day 17 (HCT116 tumor xenograft; 5 mg/kg, q4d × 3 (only first two doses given)): −196 ± 11 mm^3
Max. % Regression (Day) (HCT116 tumor xenograft; 5 mg/kg, q4d × 3 (only first two doses given), D20): 73%
anti-tumor effect (HCT116 tumor xenograft; as low as 0.25 mg/kg, q4d×3, during the dosing interval): tumor stasis
CR (complete tumor regressions) ([1]; 0.625 mg/kg, q4d × 3, i.v.): 0
Δ Tumor volume, Day 24 ([1]; 0.625 mg/kg, q4d × 3, i.v.): −32 ± 172 mm^3
% Max Regression (Day) ([1]; 0.625 mg/kg, q4d × 3, i.v., D10): 69%
Δ Tumor volume, Day 24 ([1]; 4 mg/kg, q4d × 3, i.v.): −176 ± 31 mm^3
% Max Regression (Day) ([1]; 4 mg/kg, q4d × 3, i.v., D60): 100, %
CR (complete tumor regressions) ([1]; 4 mg/kg, q4d × 3, i.v., listed as COMPOUND IIa): 9
CR (complete tumor regressions) ([1]; 4 mg/kg, q4d × 3, i.v., listed as compound IIa): 9/9
CR (complete tumor regressions) [1, 3]: 0
Δ Tumor volume, Day 21 [1, 3]: 921 ± 341 mm^3
ΔT/ΔC, Day 21 (%) [1, 3]: 161%
CR (complete tumor regressions) [1, 4]: 0
Δ Tumor volume, Day 21 [1, 4]: 765 ± 196 mm^3
ΔT/ΔC, Day 21 (%) [1, 4]: 133%
CR (complete tumor regressions) [1, 5]: 0
Δ Tumor volume, Day 21 [1, 5]: 114 ± 110 mm^3
ΔT/ΔC, Day 21 (%) [1, 5]: 20%
% Max. Regression (Day) ([1]; Study 2, 0.5 mg/kg, q4d × 3, i.v, D10): 55 (D10) %
CR (complete tumor regressions) ([1]; Study 2, 1 mg/kg, q4d × 3, i.v): 6
Δ Tumor volume, Day 21 ([1]; Study 2, 1 mg/kg, q4d × 3, i.v): −194 ± 27 mm^3
% Max. Regression (Day) ([1]; Study 2, 1 mg/kg, q4d × 3, i.v, D63): 89 (D63) %
CR (complete tumor regressions) ([1]; Study 2, 2 mg/kg, q4d × 3, i.v): 5
Δ Tumor volume, Day 21 ([1]; Study 2, 2 mg/kg, q4d × 3, i.v): −201 ± 23 mm^3
% Max. Regression (Day) ([1]; Study 2, 2 mg/kg, q4d × 3, i.v, D63): 87 (D63) %
Survival (alive/total) ([2]; 0.25 mg/kg): 9/9
Survival (alive/total) ([2]; 0.5 mg/kg): 9/9
Survival (alive/total) ([2]; 1 mg/kg): 8/9
